# How the values were obtained:
# HeLa = test: Cytotoxicity against human HeLa cells measured after 2 days by MTT assay; type: functional, cell-based; details: 48 h
# T47D = test: Cytotoxicity against human T47D cells measured after 2 days by MTT assay; type: functional, cell-based; details: 48 h
# HCT-15 = test: Cytotoxicity against human HCT15 cells measured after 2 days by MTT assay; type: functional, cell-based; details: HCT-15, 48 h
# [1] = molecular target: T1, DNA topoisomerase 1 (Homo sapiens) (UniProt P11387); test: Inhibition of recombinant human topoisomerase 1 assessed as relaxation of supercoiled plasmid DNA pBR322 at 100 uM incubated for 30 mins by agarose gel electrophoresis
# T1 sequence (whole entry): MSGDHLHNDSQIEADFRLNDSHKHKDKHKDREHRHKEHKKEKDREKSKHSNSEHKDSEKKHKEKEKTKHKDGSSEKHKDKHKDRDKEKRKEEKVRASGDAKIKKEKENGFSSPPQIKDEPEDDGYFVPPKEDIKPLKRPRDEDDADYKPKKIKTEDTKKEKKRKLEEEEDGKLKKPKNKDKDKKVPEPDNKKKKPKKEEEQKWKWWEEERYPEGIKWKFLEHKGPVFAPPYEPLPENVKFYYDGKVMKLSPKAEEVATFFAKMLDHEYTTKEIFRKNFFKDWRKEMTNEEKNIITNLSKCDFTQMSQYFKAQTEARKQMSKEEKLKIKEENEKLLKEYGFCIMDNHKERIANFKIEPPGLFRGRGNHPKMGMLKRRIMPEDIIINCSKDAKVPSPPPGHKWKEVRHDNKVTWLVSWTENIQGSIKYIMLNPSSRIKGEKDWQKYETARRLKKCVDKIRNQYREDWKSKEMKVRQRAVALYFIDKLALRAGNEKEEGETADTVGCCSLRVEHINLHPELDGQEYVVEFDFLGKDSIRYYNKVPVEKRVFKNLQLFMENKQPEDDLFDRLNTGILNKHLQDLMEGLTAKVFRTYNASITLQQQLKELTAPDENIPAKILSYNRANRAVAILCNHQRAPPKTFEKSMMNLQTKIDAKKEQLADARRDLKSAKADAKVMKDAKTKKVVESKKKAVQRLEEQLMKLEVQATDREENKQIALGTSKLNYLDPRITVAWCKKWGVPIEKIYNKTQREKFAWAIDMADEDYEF
# [2] = molecular target: T1, DNA topoisomerase 1 (Homo sapiens); test: Potency index, ratio of compound activity to CPT activity for inhibition of recombinant human topoisomerase 1 at 20 uM
# [3] = molecular target: T1, DNA topoisomerase 1 (Homo sapiens); test: Potency index, ratio of compound activity to CPT activity for inhibition of recombinant human topoisomerase 1 at 100 uM
# [4] = molecular target: T1, DNA topoisomerase 1 (Homo sapiens); test: Inhibition of recombinant human topoisomerase 1 assessed as relaxation of supercoiled plasmid DNA pBR322 at 20 uM incubated for 30 mins by agarose gel electrophoresis
# [5] = molecular target: DNA topoisomerase 2-alpha (Homo sapiens) (UniProt P11388); test: Potency index, ratio of compound activity to etoposide activity for inhibition of recombinant human topoisomerase 2alpha at 100 uM
# Sequence of DNA topoisomerase 2-alpha (Homo sapiens) (P11388 whole entry): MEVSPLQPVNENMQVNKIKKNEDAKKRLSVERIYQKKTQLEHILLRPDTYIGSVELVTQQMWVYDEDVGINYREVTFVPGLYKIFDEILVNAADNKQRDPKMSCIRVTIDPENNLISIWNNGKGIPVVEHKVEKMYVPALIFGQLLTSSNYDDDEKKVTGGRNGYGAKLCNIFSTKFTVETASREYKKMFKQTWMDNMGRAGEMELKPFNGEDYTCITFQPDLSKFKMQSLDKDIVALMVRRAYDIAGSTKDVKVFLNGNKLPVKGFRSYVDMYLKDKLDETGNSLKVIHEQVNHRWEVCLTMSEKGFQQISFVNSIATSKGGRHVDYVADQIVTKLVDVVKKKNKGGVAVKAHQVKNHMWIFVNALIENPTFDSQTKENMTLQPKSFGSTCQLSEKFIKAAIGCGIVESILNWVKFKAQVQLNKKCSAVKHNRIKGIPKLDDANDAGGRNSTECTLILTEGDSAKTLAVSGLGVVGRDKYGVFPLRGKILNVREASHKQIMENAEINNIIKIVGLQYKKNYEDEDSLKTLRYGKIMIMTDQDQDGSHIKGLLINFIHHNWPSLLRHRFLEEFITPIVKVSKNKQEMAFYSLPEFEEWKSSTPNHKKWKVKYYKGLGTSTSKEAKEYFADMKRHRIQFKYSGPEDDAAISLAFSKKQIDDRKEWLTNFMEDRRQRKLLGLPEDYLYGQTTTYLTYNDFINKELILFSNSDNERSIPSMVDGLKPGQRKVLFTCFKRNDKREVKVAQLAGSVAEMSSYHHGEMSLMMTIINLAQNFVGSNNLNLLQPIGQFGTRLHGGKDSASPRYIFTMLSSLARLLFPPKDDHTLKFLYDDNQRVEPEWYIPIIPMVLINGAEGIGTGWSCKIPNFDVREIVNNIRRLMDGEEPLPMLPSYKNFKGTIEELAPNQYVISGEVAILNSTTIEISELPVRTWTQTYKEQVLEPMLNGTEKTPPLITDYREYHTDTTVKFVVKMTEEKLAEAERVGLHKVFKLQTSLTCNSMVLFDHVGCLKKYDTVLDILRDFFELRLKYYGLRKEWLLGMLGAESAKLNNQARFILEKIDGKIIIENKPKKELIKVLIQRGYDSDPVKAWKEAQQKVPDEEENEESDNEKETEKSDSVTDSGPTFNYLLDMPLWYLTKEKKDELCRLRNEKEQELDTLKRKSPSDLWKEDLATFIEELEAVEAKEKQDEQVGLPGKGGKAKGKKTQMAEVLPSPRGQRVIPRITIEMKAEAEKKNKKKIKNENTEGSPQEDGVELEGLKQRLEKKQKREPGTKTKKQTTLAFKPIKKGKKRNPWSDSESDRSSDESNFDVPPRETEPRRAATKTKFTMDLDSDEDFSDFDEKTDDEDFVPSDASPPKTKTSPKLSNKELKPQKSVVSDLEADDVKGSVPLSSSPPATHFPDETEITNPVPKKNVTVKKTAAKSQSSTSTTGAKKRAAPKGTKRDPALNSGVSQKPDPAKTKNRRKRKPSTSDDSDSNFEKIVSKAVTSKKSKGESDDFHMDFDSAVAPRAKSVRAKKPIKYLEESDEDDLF
# [6] = molecular target: DNA topoisomerase 2-alpha (Homo sapiens) (UniProt P11388); test: Inhibition of recombinant human topoisomerase 2alpha assessed as relaxation of supercoiled plasmid DNA pBR322 at 100 uM incubated for 30 mins by agarose gel electrophoresis
# [7] = molecular target: DNA topoisomerase 2-alpha (Homo sapiens) (UniProt P11388); test: Inhibition of recombinant human topoisomerase 2alpha assessed as relaxation of supercoiled plasmid DNA pBR322 at 20 uM incubated for 30 mins by agarose gel electrophoresis
# [8] = molecular target: DNA topoisomerase 2-alpha (Homo sapiens) (UniProt P11388); test: Potency index, ratio of compound activity to etoposide activity for inhibition of recombinant human topoisomerase 2alpha at 20 uM
inhibition [1] [%],Ratio [2],Ratio [3],inhibition [4] [%],Ratio [5],inhibition [6] [%],inhibition [7] [%],Ratio [8],Structure (SMILES),IC50 (HeLa) [µM],IC50 (T47D) [µM],IC50 (HCT-15) [µM]
–,–,–,–,–,–,–,–,CC[C@@]1(O)C(=O)OCc2c1cc1n(c2=O)Cc2cc3ccccc3nc2-1 [CAMPTOTHECIN],1.59,1.62,6.08
82.9,1.22,1.03,21.1,0.09,7.2,–,–,Cc1ccc2nc(-c3ccccc3N(C)C)[nH]c(=O)c2c1,14,26.7,> 50
77.2,–,0.93,0,–,0,–,–,Cc1ccc2c(=O)[nH]c(-c3cccc(OC(F)(F)F)c3)nc2c1,> 50,> 50,> 50
4.1,–,0.05,–,0.06,5.5,–,–,Cc1ccc2nc(-c3cccc4ccccc34)[nH]c(=O)c2c1,5.36,> 50,> 50
–,–,–,–,–,–,–,–,COc1cc([C@@H]2c3cc4c(cc3[C@@H](O[C@@H]3O[C@@H]5CO[C@@H](C)O[C@H]5[C@H](O)[C@H]3O)[C@H]3COC(=O)[C@H]23)OCO4)cc(OC)c1O [ETOPOSIDE],7.6,9.28,5.54
100,3.04,1.29,93.6,–,0,–,–,Cc1ccc2c(=O)[nH]c(-c3cccc(C(F)(F)F)c3)nc2c1,> 50,> 50,> 50
81.2,–,0.98,0,–,0,–,–,Cc1ccc2c(=O)[nH]c(-c3ccccc3F)nc2c1,0.83,> 50,10.3
67.9,2.11,0.84,36.3,–,0,–,–,Cc1ccc2nc(-c3ccccc3F)[nH]c(=O)c2c1,> 50,> 50,> 50
81.7,0.49,0.98,13.3,0.11,9.4,–,–,CCN(CC)c1ccc2nc(-c3ccccc3C(F)(F)F)[nH]c(=O)c2c1,0.1,2.55,0.28
72,0.65,1.01,21.1,0.09,7.2,0,–,Cc1ccc2nc(-c3ccccc3C(F)(F)F)[nH]c(=O)c2c1,2.45,> 50,> 50
100,1.94,1.24,33.4,–,0,–,–,O=c1[nH]c(-c2cccc3ccccc23)nc2ccc(N3CCCCC3)cc12,0.33,> 50,2.24
100,1.95,1.29,60.1,–,0,–,–,Cc1ccc2c(=O)[nH]c(-c3cccc4ccccc34)nc2c1,> 50,> 50,23.3
90.4,0.83,1.17,25.5,–,0,–,–,CCN(CC)c1ccc2nc(-c3cccc4ccccc34)[nH]c(=O)c2c1,0.004,2.69,3.21
77.5,0.16,0.93,4.3,0.12,9.6,–,–,Cc1ccc2c(=O)[nH]c(-c3cccc(F)c3)nc2c1,> 50,> 50,14.4
100,3.25,1.29,100,–,0,–,–,Cc1ccc2c(=O)[nH]c(-c3ccccc3OC(F)(F)F)nc2c1,18.3,> 50,15.9
75.7,0.39,1.06,12.7,0.05,4.6,–,–,Cc1cccc(-c2nc3ccc(C)cc3c(=O)[nH]2)c1,> 50,> 50,> 50
81.2,–,0.98,0,–,0,–,–,CCN(CC)c1ccc2nc(-c3ccccc3OC(F)(F)F)[nH]c(=O)c2c1,0.04,1.67,1.71
98.6,–,1.39,0,–,0,–,–,Cc1ccc2nc(-c3cccc(OC(F)(F)F)c3)[nH]c(=O)c2c1,> 50,> 50,> 50
80.9,–,0.97,0,–,0,–,–,COc1cccc(-c2nc3ccc(N4CCCCC4)cc3c(=O)[nH]2)c1OC,8.19,10.4,24.8
71.8,–,1.01,0,0.81,65.2,19,0.38,COc1cccc(-c2nc3ccc(C)cc3c(=O)[nH]2)c1,> 50,> 50,32
82.9,0.01,1.03,0.2,–,0,–,–,Cc1ccc2nc(-c3cccc(F)c3)[nH]c(=O)c2c1,> 50,> 50,> 50
0,–,–,–,–,0,–,–,Cc1ccc2nc(-c3ccccc3C)[nH]c(=O)c2c1,4.58,> 50,11.7
82.1,–,0.99,0,–,0,–,–,CCN(CC)c1ccc2nc(-c3ccccc3N(C)C)[nH]c(=O)c2c1,0.07,2.21,4.2
–,–,–,–,–,–,–,–,COc1cccc2c1C(=O)c1c(O)c3c(c(O)c1C2=O)C[C@@](O)(C(=O)CO)C[C@@H]3O[C@H]1C[C@H](N)[C@H](O)[C@H](C)O1 [DOXORUBICIN],0.52,1.9,3.33
45.8,0.13,0.64,4.2,0.14,11.2,0,–,Cc1ccc2nc(-c3cccc(C(F)(F)F)c3)[nH]c(=O)c2c1,> 50,> 50,> 50
100,0.14,1.24,2.4,–,0,–,–,CN(C)c1ccc2nc(-c3cccc4ccccc34)[nH]c(=O)c2c1,0.05,> 50,0.46
66.9,–,0.83,0,0.06,5.47,–,–,Cc1ccc2nc(-c3ccccc3OC(F)(F)F)[nH]c(=O)c2c1,0.85,> 50,2.79

# Reference: ChEMBL document CHEMBL3632492, “Substituted 2-arylquinazolinones: Design, synthesis, and evaluation of cytotoxicity and inhibition of topoisomerases” (Eur J Med Chem, 2015)
